Measurements: patent US20230174584A1, “Antibiotic Compounds” (priority 2019, published 2023)
In brackets after ≈: the same amount, converted by molar mass.

Tests used:
S. aureus USA300 = assay: microbe, parasite or virus in culture; format: cell-based, Staphylococcus aureus
Outline: (§1)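 Inoculum 10^6 CFU/mL in TSB/0.002% p80 (Enterococcus, VISA, VRSA pre-grown to 0.5 McFarland). 2-fold dilutions, 1:1 with inoculum. 37 °C × 24 h, 600 rpm, sealed breathable membrane. MIC median of ≥3.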

[1] = system: S. aureus HIP13419, NR-46413; assay: microbe, parasite or virus in culture; format: cell-based, Staphylococcus aureus
Outline: as §1

MRSA USA300 = assay: MIC assay in the presence of sheep serum; format: cell-based, Staphylococcus aureus; details: MRSA USA300, TSB + 0.002% p80 + 50% sheep serum
Outline: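 Broth microdilution MIC per CLSI against MRSA USA300, 2-fold compound dilutions, 10^6 CFU/mL inoculum (pre-mixing), polypropylene plates, 37 °C for 24 h with shaking. Medium was TSB + 0.002% polysorbate 80 + 50% sheep serum; MIC as median of at least triplicates, in μg/mL.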

[2] = system: panel of 31 vancomycin-resistant E. faecium strains; assay: MIC assay, MIC50/MIC90 over panel; format: cell-based, Enterococcus faecium
Experimental: (§2) The antibacterial activity of the compounds was tested against a panel of bacteria, including Gram-positive bacteria (S. aureus ATCC29213, S. aureus USA300, S. aureus LIM-2, NR-45881, S. aureus HIP13419, NR-46413, E. faecium E155, E. faecium E7314, E. faecium E980, E. faecalis E1246, E. faecalis E7406 and S. pneumonia 153). The antibacterial activity of the compounds was further tested against S. aureus NY-155, NR-46236, S. aureus HIP12864, NR-46074, S. aureus 880 (BR-VRSA), NR-49120, E. faecalis E1246, E. faecalis E7604, as well as some Gram-negative bacteria (Escherichia coli and Klebsiella pneumoniae). Minimum inhibitory concentrations (MICs) in μg/mL were performed according to the CLSI guidelines. From glycerol stocks, bacterial strains were cultured on blood agar plates and incubated at 37° C. for 18 h. A single colony was transferred to tryptic soy broth (TSB) with 0.002% polysorbate 80 (p80). For the Enterococcus, VISA and VRSA strains, the cultures were grown at 37° C. until the optical density of the suspension reached a level equivalent to the 0.5 McFarland standard. The bacterial suspensions were diluted in TSB with 0.002% p80 to reach a bacterial cell density of 10^6 CFU/mL. In case of the other (vancomycin-sensitive) S. aureus strains, the direct colony suspension method was used. For these strains, after transfer of the colonies to TSB with 0.002% p80, they were immediately diluted to 10^6 CFU/mL, instead of incubated prior to this dilution. In the case of S. pneumonia, direct colony suspension was used by immediately suspending multiple colonies from fresh blood agar plates in TSB+0.002% p80 to an OD600 of 0.5 and subsequent dilution to 10^6 CFU mL^−1 in TSB+0.002% p80+5% lysed horse blood. Antibiotic dilutions for this strains were also made in TSB+0.002% p80+5% lysed horse blood. Both agar and microplates containing S. pneumonia were incubated at 37° C. with 5% CO2 for 24 h with constant shaking (600 rpm). […] The cultures were grown to exponential phase (OD600=0.5) at 37° C. […] In polypropylene 96-well microtiter plates, test compounds were added in biological triplicates and serial diluted 2-fold by transfer and mixing from one well to the next to achieve a final volume of 50 μL per well. An equal volume of bacterial suspension (10^6 CFU mL^−1) was added to the wells. The plates were sealed with breathable membranes and incubated at 37° C. for 24 h with constant shaking (600 rpm). In polypropylene microtiter plates, 100 μL of the test compounds was added to the first row in biological triplicates, and 50 μL of media was added to the other wells. The compounds were subjected to serial dilution by transfer and mixing of 50 μL from one well to the next. Subsequently, 50 μL of bacterial suspension (10^6 CFU/mL) was added to the wells. The plates were sealed with breathable membranes and incubated at 37° C. for 24 h with constant shaking (600 rpm). Positive growth control consisted of wells with bacterial suspension and without antibiotic. Negative growth control consisted of solely media without bacterial suspension or antibiotic. The MICs were determined from the median of a minimum of triplicates.

E. faecium E7314 = assay: microbe, parasite or virus in culture; format: cell-based, Enterococcus faecium
Outline: as §1

E. faecium E155 = assay: microbe, parasite or virus in culture; format: cell-based, Enterococcus faecium
Outline: as §1

E. faecium E1130 = assay: MIC assay; format: cell-based, Enterococcus faecium
Outline: as §1

E. faecium E0338 = assay: MIC assay; format: cell-based, Enterococcus faecium
E. faecalis E7604 = assay: microbe, parasite or virus in culture; format: cell-based, Enterococcus faecalis
Outline: as §1

E. faecalis E7406 = assay: microbe, parasite or virus in culture; format: cell-based, Enterococcus faecalis
Outline: as §1

E. faecium E1441 = assay: MIC assay; format: cell-based, Enterococcus faecium
VRS2 = assay: MIC assay, VISA and VRSA panel; format: cell-based, Staphylococcus aureus
Experimental: as §2

[3] = system: S. aureus HIP12864, NR-46074; assay: MIC assay; format: cell-based, Staphylococcus aureus
Outline: as §1

[4] = system: S. aureus NY-155, NR-46236; assay: MIC assay; format: cell-based, Staphylococcus aureus
Outline: as §1

[5] = system: S. aureus 880 (BR-VRSA), NR-49120; assay: MIC assay; format: cell-based, Staphylococcus aureus
Outline: as §1

S. aureus ATCC29213 = assay: MIC assay; format: cell-based, Staphylococcus aureus
Outline: as §1

[6] = system: S. aureus LIM-2, NR-25881; assay: MIC assay; format: cell-based, Staphylococcus aureus
Outline: as §1

[7] = S. aureus HIP13419, NR-46413 VRSA
[8] = panel of 31 vancomycin-resistant E. faecium strains
[9] = E. faecium E7314, VanB (Table 10)
[10] = E. faecium E155, VanA (Table 10)
[11] = S. aureus HIP12864, NR-46074 VISA
[12] = S. aureus NY-155, NR-46236 MRSA

## CCCCCCCNC(N)=Nc1ccc(CN[C@@]2(C)C[C@H](O[C@H]3[C@H](Oc4c5cc6cc4Oc4ccc(cc4Cl)[C@@H](O)[C@@H](NC(=O)[C@@H](CC(C)C)NC)C(=O)N[C@@H](CC(N)=O)C(=O)N[C@H]6C(=O)N[C@H]4C(=O)N[C@H](C(=O)N[C@H](C(=O)O)c6cc(O)cc(O)c6-c6cc4ccc6O)[C@H](O)c4ccc(c(Cl)c4)O5)O[C@H](CO)[C@@H](O)[C@@H]3O)O[C@@H](C)[C@H]2O)cc1 [Compound 5]
S. aureus USA300; MRSA USA300, TSB + 0.002% p80
  MIC: 0.016 µg/mL
S. aureus USA300; S. aureus USA300 MRSA
  MIC: 0.01562 µg/mL (≈ 0.00922 µM)
[1]; [7]
  MIC: 1 µg/mL (≈ 0.59 µM)
MRSA USA300
  MIC: 0.031 µg/mL
[2]; [8]
  MIC50: 1 µg/mL (≈ 0.59 µM)
  MIC90: 8 µg/mL (≈ 4.72 µM)
E. faecium E7314; [9]
  MIC: ≤0.008 µg/mL
E. faecium E7314; E. faecium E7314 VRE (VanB)
  MIC: 0.007812 µg/mL (≈ 0.00461 µM)
E. faecium E155; [10]
  MIC: 2 µg/mL (≈ 1.18 µM)
E. faecium E155; E. faecium E155 VRE (VanA)
  MIC: 2 µg/mL (≈ 1.18 µM)
E. faecium E1130; E. faecium E1130, VanA
  MIC: ≤0.008 µg/mL
E. faecium E0338; E. faecium E0338, VanA
  MIC: 4 µg/mL (≈ 2.36 µM)
E. faecalis E7604; E. faecalis E7604 VRE (vanB)
  MIC: 0.016 µg/mL (≈ 0.00944 µM)
E. faecalis E7406; E. faecalis E7406 VRE (VanB)
  MIC: 0.01562 µg/mL (≈ 0.00922 µM)
E. faecium E1441; E. faecium E1441, VanA
  MIC: 4 µg/mL (≈ 2.36 µM)
VRS2; strain VRS2
  MIC: 0.25 µg/mL (≈ 0.148 µM)
[3]; [11]
  MIC: 0.063 µg/mL (≈ 0.0372 µM)
[4]; [12]
  MIC: ≤0.008 µg/mL
[5]; S. aureus 880, NR-49120 VRSA
  MIC: 4 µg/mL (≈ 2.36 µM)
[5]; strain BR-VRSA
  MIC: 4 µg/mL (≈ 2.36 µM)
S. aureus ATCC29213; S. aureus ATCC29213 MSSA
  MIC: ≤0.007812 µg/mL
[6]; S. aureus LIM-2, NR-25881 VISA
  MIC: 0.031 µg/mL (≈ 0.0183 µM)

## CCCCCCN(CCCCCC)C(N)=Nc1ccc(CN[C@@]2(C)C[C@H](O[C@H]3[C@H](Oc4c5cc6cc4Oc4ccc(cc4Cl)[C@@H](O)[C@@H](NC(=O)[C@@H](CC(C)C)NC)C(=O)N[C@@H](CC(N)=O)C(=O)N[C@H]6C(=O)N[C@H]4C(=O)N[C@H](C(=O)N[C@H](C(=O)O)c6cc(O)cc(O)c6-c6cc4ccc6O)[C@H](O)c4ccc(c(Cl)c4)O5)O[C@H](CO)[C@@H](O)[C@@H]3O)O[C@@H](C)[C@H]2O)cc1 [Compound 12]
S. aureus USA300; MRSA USA300, TSB + 0.002% p80
  MIC: 0.063 µg/mL
S. aureus USA300; S. aureus USA300 MRSA
  MIC: 0.0625 µg/mL (≈ 0.0354 µM)
[1]; [7]
  MIC: 0.25 µg/mL (≈ 0.142 µM)
MRSA USA300
  MIC: 0.063 µg/mL
[2]; [8]
  MIC50: 0.25 µg/mL (≈ 0.142 µM)
  MIC90: 2 µg/mL (≈ 1.13 µM)
E. faecium E7314; [9]
  MIC: ≤0.008 µg/mL
E. faecium E7314; E. faecium E7314 VRE (VanB)
  MIC: ≤0.007812 µg/mL
E. faecium E155; [10]
  MIC: 1 µg/mL (≈ 0.567 µM)
E. faecium E155; E. faecium E155 VRE (VanA)
  MIC: 1 µg/mL (≈ 0.567 µM)
E. faecium E1130; E. faecium E1130, VanA
  MIC: ≤0.008 µg/mL
E. faecium E0338; E. faecium E0338, VanA
  MIC: 2 µg/mL (≈ 1.13 µM)
E. faecalis E7604; E. faecalis E7604 VRE (vanB)
  MIC: ≤0.008 µg/mL
E. faecalis E7406; E. faecalis E7406 VRE (VanB)
  MIC: ≤0.007812 µg/mL
E. faecium E1441; E. faecium E1441, VanA
  MIC: 2 µg/mL (≈ 1.13 µM)
VRS2; strain VRS2
  MIC: <0.016 µg/mL
[3]; [11]
  MIC: 0.063 µg/mL (≈ 0.0357 µM)
[4]; [12]
  MIC: ≤0.008 µg/mL
[5]; S. aureus 880, NR-49120 VRSA
  MIC: 1 µg/mL (≈ 0.567 µM)
[5]; strain BR-VRSA
  MIC: 1 µg/mL (≈ 0.567 µM)
S. aureus ATCC29213; S. aureus ATCC29213 MSSA
  MIC: ≤0.007812 µg/mL
[6]; S. aureus LIM-2, NR-25881 VISA
  MIC: ≤0.008 µg/mL

## CN[C@H](CC(C)C)C(=O)N[C@H]1C(=O)N[C@@H](CC(N)=O)C(=O)N[C@H]2C(=O)N[C@H]3C(=O)N[C@H](C(=O)N[C@H](C(=O)O)c4cc(O)cc(O)c4-c4cc3ccc4O)[C@H](O)c3ccc(c(Cl)c3)Oc3cc2cc(c3O[C@@H]2O[C@H](CO)[C@@H](O)[C@H](O)[C@H]2O[C@H]2C[C@](C)(N)[C@H](O)[C@H](C)O2)Oc2ccc(cc2Cl)[C@H]1O [Vancomycin, reference compound]
S. aureus USA300; Staphylococcus aureus, MRSA / USA300
  MIC: 1 µg/mL (≈ 0.69 µM)
[1]; Staphylococcus aureus, VRSA
  MIC: > 128 µg/mL
[2]; Enterococcus faecium
  MIC50: 128 µg/mL (≈ 88.3 µM)
  MIC90: 128 µg/mL (≈ 88.3 µM)
E. faecium E7314; Enterococcus faecium, E7314
  MIC: 128 µg/mL (≈ 88.3 µM)
E. faecium E7314; Enterococcus faecium, VRE
  MIC: 128 µg/mL (≈ 88.3 µM)
E. faecium E155; Enterococcus faecium, E155
  MIC: > 128 µg/mL
E. faecium E155; Enterococcus faecium, VRE
  MIC: > 128 µg/mL
E. faecium E1130; Enterococcus faecium, E1130
  MIC: > 128 µg/mL
E. faecium E0338; Enterococcus faecium, E0338
  MIC: > 128 µg/mL
E. faecalis E7604; Enterococcus faecalis, VRE
  MIC: 16 µg/mL (≈ 11 µM)
E. faecalis E7406; Enterococcus faecalis, VRE
  MIC: 16 µg/mL (≈ 11 µM)
E. faecium E1441; Enterococcus faecium, E1441
  MIC: > 128 µg/mL
VRS2; Staphylococcus aureus
  MIC: 32 µg/mL (≈ 22.1 µM)
[3]; Staphylococcus aureus, VISA
  MIC: 8 µg/mL (≈ 5.52 µM)
[4]; Staphylococcus aureus, MRSA
  MIC: 2 µg/mL (≈ 1.38 µM)
[5]; Staphylococcus aureus, VRSA
  MIC: > 128 µg/mL
[5]; strain BR-VRSA
  MIC: >128 µg/mL
S. aureus ATCC29213; Staphylococcus aureus, ATCC 29213 / MSSA
  MIC: 1 µg/mL (≈ 0.69 µM)
[6]; Staphylococcus aureus, VISA
  MIC: 8 µg/mL (≈ 5.52 µM)
